Data taken from patent US8263610B2, “Substituted imidazolyl-5,6-dihydrobenzo[N]isoquinoline compounds” (ArQule, Inc., priority 2008, dated 2012).

What was measured:
Assay in all cases: MTS assay, inhibition of cell growth
Assay type in all cases: cell-based
DLD-1 cells = settings: Homo sapiens, compound at 10 μM, 72 hours
Method: (§1) MDA-MB-231, DLD-1, Kato III NCI-H1299, PACA-2 cells, were maintained at 37° C., 5% CO2 in DMEM media supplemented with 10% fetal bovine serum, penicillin/streptomycin and fungizone (Invitrogen). Cells were seeded into 96-well tissue culture plates at 3000 per well and cultured at 37° C. for 18 hours. Test compounds were dissolved and diluted to 300× in DMSO then further diluted 1:40 in DMEM before addition to cells (1:7.5 dilution). Cells were incubated with test compounds for 72 hours followed by incubation with tetrazolium compound (3-(4,5-dimethylthiazol-2-yl)-5-(3-carboxymethoxyphenyl)-2-(4-sulfophenyl)-2H-tetrazolium, inner salt; MTS) and the electron coupling reagent, phenazine methosulfate (PMS) for 4 hours. […] The ability of compounds to inhibit cell growth in this assay is correlated with the reduction of dehydrogenase enzyme activity found in metabolically active cells. The measurement of the absorbance of the formazan was assessed using an ENVISION™ (Perkin Elmer) microplate reader at 492 nm.

Kato III cells = settings: Homo sapiens, compound at 10 μM, 72 hours
Method: as §1

MDA-MB-231 cells = settings: Homo sapiens, compound at 10 μM, 72 hours
Method: as §1

NCI-H1299 cells = settings: Homo sapiens, compound at 10 μM, 72 hours
Method: as §1

PACA-2 cells = settings: compound at 10 μM, 72 hours
Method: as §1

Row | SMILES | inhibition at 10 µM (DLD-1 cells) [%] | inhibition at 10 µM (Kato III cells) [%] | inhibition at 10 µM (MDA-MB-231 cells) [%] | inhibition at 10 µM (NCI-H1299 cells) [%] | inhibition at 10 µM (PACA-2 cells) [%]
1 | O=C(Nc1cccc(Oc2ccccc2)c1)N1CCc2c(cnc3[nH]nc(Br)c23)C1 [1-bromo-N-(3-phenoxyphenyl)-3,6,8,9-tetrahydro-7H-pyrazolo[3,4-c][2,7]naphthyridine-7-carboxamide] | 75 to 100 | 75 to 100 | 25 to 49 | 50 to 74 | 50 to 74
2 | Cc1ccc(C)c(S(=O)(=O)NC2CCc3c(cnc4[nH]ncc34)C2)c1 (stereo not shown) [2,5-dimethyl-N-(6,7,8,9-tetrahydro-3H-pyrazolo[3,4-c]isoquinolin-7-yl)benzenesulfonamide] | 75 to 100 | 75 to 100 | 75 to 100 | 75 to 100 | 75 to 100
3 | COc1ccc(Cn2ncc3c4c(cnc32)CCc2[nH]c(=O)ccc2-4)cc1 [3-(4-methoxybenzyl)-3,6,7,8-tetrahydro-9H-pyrazolo[4,3-a][3,7]phenanthrolin-9-one] | 75 to 100 | 75 to 100 | 75 to 100 | 75 to 100 | 75 to 100
4 | CNc1ncc2c(n1)CCc1cnc3c(cnn3Cc3ccc(OC)cc3)c1-2 [3-(4-methoxybenzyl)-N-methyl-6,7-dihydro-3H-pyrazolo[4′,3′:5,6]pyrido[4,3-f]quinazolin-9-amine] | 75 to 100 | 75 to 100 | 75 to 100 | < 24 | 75 to 100
5 | Nc1nc(N2CCc3c(cnc4[nH]ncc34)C2)c2cn[nH]c2n1 [4-(3,6,8,9-tetrahydro-7H-pyrazolo[3,4-c][2,7]naphthyridin-7-yl)-1H-pyrazolo[3,4-d]pyrimidin-6-amine] | 75 to 100 | 75 to 100 | 50 to 74 | 25 to 49 | 75 to 100
6 | c1nc2[nH]ncc2c2c1CNCC2 [6,7,8,9-tetrahydro-3H-pyrazolo[3,4-c][2,7]naphthyridine] | 75 to 100 | 25 to 49 | 75 to 100 | 25 to 49 | 75 to 100
7 | c1cc2c(s1)CCc1cnc3[nH]ncc3c1-2 [6,7-dihydro-3H-pyrazolo[3,4-c]thieno[3,2-f]isoquinoline] | 75 to 100 | 75 to 100 | 75 to 100 | 75 to 100 | 75 to 100
8 | Nc1nc(N)nc(N2CCc3c(cnc4[nH]ncc34)C2)n1 [6-(3,6,8,9-tetrahydro-7H-pyrazolo[3,4-c][2,7]naphthyridin-7-yl)-1,3,5-triazine-2,4-diamine] | 75 to 100 | 75 to 100 | 75 to 100 | 75 to 100 | 75 to 100
9 | Nc1nc(N2CCc3c(cnc4[nH]ncc34)C2)c2nc[nH]c2n1 [6-(3,6,8,9-tetrahydro-7H-pyrazolo[3,4-c][2,7]naphthyridin-7-yl)-9H-purin-2-amine] | 75 to 100 | 75 to 100 | 75 to 100 | 75 to 100 | 75 to 100
10 | Cc1cc(NC2CCc3c(cnc4[nH]ncc34)C2)nc(N)n1 (stereo not shown) [6-methyl-N~4~-(6,7,8,9-tetrahydro-3H-pyrazolo[3,4-c]isoquinolin-7-yl)pyrimidine-2,4-diamine] | 75 to 100 | 75 to 100 | 75 to 100 | 25 to 49 | 75 to 100
11 | Clc1ccccc1C1Cc2cnc3[nH]nc(-c4cnn(C5CCNCC5)c4)c3c2-c2ccccc21 (stereo not shown) [7-(2-chlorophenyl)-1-(1-piperidin-4-yl-1H-pyrazol-4-yl)-6,7-dihydro-3H-benzo[f]pyrazolo[3,4-c]isoquinoline] | 75 to 100 | 75 to 100 | 75 to 100 | 75 to 100 | 75 to 100
